Reference: patent publication US20120270954A1, “METHODS FOR MAINTAINING EYE HEALTH AND AMELIORATING OPTHALMIC MALADIES IN CANINES” (priority 2009, published 2012)
Where two headings read alike, the source gives them in different places.

Key:
[1] = format: in vivo; conditions: for Antioxidant level in Cortical/Epithelial Layer (C) of dog lens / Antioxidant level in Nuclear Layer (N) of dog lens: lenses of seven dogs
Method: Eye samples were collected from seven (7) dogs. Eye balls were removed within 1 hour of death at necropsy, stored in individual containers at 4° C., and stored on wet ice for dissection within one day. The eyes were dissected to take out lenses. The lenses were separated into two layers: (1) an outer, soft cortical/epithelial layer and (2) an inner, hard nuclear layer. The layers were analyzed for carotenoids, vitamin C, and vitamin E following standard procedures given in Craft N E, Haitema T B, Garnett K M, Fitch K A, Dorey C K. Carotenoid, tocopherol, and retinol concentrations in elderly human brain. J Nutr. Health Aging 2004; 8:156-62.

[2] = previous studies, humans regularly consume β-carotene in their diets; cited from earlier work

Compound | Antioxidant level in Cortical/Epithelial Layer (C) of dog lens [1] | Antioxidant level in Nuclear Layer (N) of dog lens ([1]; nuclear layer) | β-Carotene concentration in lens layer ([1]; Dog 1, BEA, M/n, age 15.50, layer N) | β-Carotene concentration in lens layer ([1]; Dog 2, BEA, M/n, age 13.55, layer C) | β-Carotene concentration in lens layer ([1]; Dog 2, BEA, M/n, age 13.55, layer N) | β-Carotene concentration in lens layer ([1]; Dog 3, LAB, F/s, age 13.41, layer C) | β-Carotene concentration in lens layer ([1]; Dog 3, LAB, F/s, age 13.41, layer N) | β-Carotene concentration in lens layer ([1]; Dog 4, LAB, M/n, age 14.22, layer C) | β-Carotene concentration in lens layer ([1]; Dog 4, LAB, M/n, age 14.22, layer N) | β-Carotene concentration in lens layer ([1]; Dog 5, Man T, F/s, age 12.79, layer C) | β-Carotene concentration in lens layer ([1]; Dog 5, Man T, F/s, age 12.79, layer N) | β-Carotene concentration in lens layer ([1]; Dog 6, SIB HUSKY, M/n, age 6.10, layer C) | β-Carotene concentration in lens layer ([1]; Dog 6, SIB HUSKY, M/n, age 6.10, layer N) | β-Carotene concentration in lens layer ([1]; Dog 7, LAB, F/s, age 9.31, layer C) | β-Carotene concentration in lens layer ([1]; Dog 7, LAB, F/s, age 9.31, layer N) | cortical layer samples that accumulated β-carotene ([1]; dog lens, cortical layer, seven dogs) | nuclear layer samples that accumulated β-carotene ([1]; dog lens, nuclear layer, seven dogs) | detection or accumulation in human lenses [2]
O=C1O[C@H]([C@@H](O)CO)C(O)=C1O [Vitamin C, vitamin C] | 112.38 µg/g | 23.59 µg/g | – | – | – | – | – | – | – | – | – | – | – | – | – | – | – | –
CC1=C(/C=C/C(C)=C/C=C/C(C)=C/C=C/C=C(C)/C=C/C=C(C)/C=C/C2=C(C)CCCC2(C)C)C(C)(C)CCC1 [β-Carotene, β-carotene] | 0.00174 µg/g | 0.00274 µg/g | 0.79 ng/g | 1.06 ng/g | 0.60 ng/g | 0.73 ng/g | 1.26 ng/g | 0.71 ng/g | 0.79 ng/g | 1.35 ng/g | 1.60 ng/g | 4.26 ng/g | 8.17 ng/g | 2.35 ng/g | 5.99 ng/g | six out of seven cortical layer samples accumulated | all nuclear layer samples accumulated | not detected or accumulated in human lenses
vitamin E | 0.93 µg/g | 0.64 µg/g | – | – | – | – | – | – | – | – | – | – | – | – | – | – | – | –
